Reference: patent US6146859A, “Facile synthesis of L-homophenylalanine by equilibrium shift enzymatic reaction using engineered tyrosine aminotransferase” (Academia Sinica, priority 1999, dated 2000)
Values joined by “and” are separate entries in the source; they are usually repeats but may differ in a detail not shown here. Identical values can stand only once.

Columns and labels:
[1] = test system: microbial aminotransferase; settings: at more than 0.2M; cited from earlier work
[2] = biological target: T1, genetically engineered tyrosine aminotransferase (Escherichia coli, UniProt P04693); experiment: Tyrosine aminotransferase-catalyzed amino transfer to 2-oxo-4-phenylbutyric acid with various amino acids as amino donors; assay type: biochemical, E. coli; design: initial rate: unit not given here; settings: amino acid 0.20 mmol, 2-oxo-4-phenylbutyric acid 0.10 mmol, enzyme 1 unit, 5 mL Tris-HCl 20 mM pH 8.5, 37° C., 5 min; for initial rate: increase of homophenylalanine by HPLC
T1 construct: made in house; host or cells: E. coli
Excerpt: Production of tyrosine aminotransferase: Genetically engineered tyrosine aminotransferase is preferably produced by overexpressing the gene product in E. coli according to the method described by Kuramitsu et al. in Biochem, Biophys. Res. Commu., 1989, 133:134, the contents of which are herein incorporated by references in their entirety. One unit of enzyme activity was defined as the activity that produces 1 μmol of product per minute.
The enzymatic activities of the genetically engineered tyrosine aminotransferase as described above were tested using various amino acids as amino donors and the results are shown in Table I. Each enzyme-catalyzed reaction was carried out in a mixture (5 mL) of Tris-HCl buffer (20 mM, pH 8.5) containing the tested amino acid (0.20 mmol) and 2-oxo-4-phenylbutyric acid (0.10 mmol) and the enzyme (1 unit) at 37° C. for 5 min. The initial rate was measured by calculating the increase of homophenylalanine concentration in each reaction based on HPLC analysis.

[3] = biological target: T2, tyrosine aminotransferase (Escherichia coli, UniProt P04693); experiment: Equilibrium constants of the tyrosine aminotransferase-catalyzed reaction with 2-oxo-4-phenylbutyric acid and various amino acids; assay type: biochemical, E. coli; settings: 2-oxo-4-phenylbutyric acid and the amino acid as substrates
T2 construct: made in house; host or cells: E. coli
Description: (§1) The HPLC chromatography is preferably conducted under the following conditions: column, 5C18; flow rate, 1 ml/min; gradient elution from an initial solution of 10% of eluent B+90% of eluent A to a final solution of 100% of eluent B in 20 minutes, wherein eluent A contains 5% ACN in 0.1% TFA and eluent B contains 95% ACN in 0.1% TFA; detector UV 214 nm. Initially, only peaks representing the starting materials L-glutamic acid having a retention time of 2.70 min and compound 1 having a retention time of 7.49 min appear in the HPLC graph as shown in the lower panel of FIG. 3. After adding the tyrosine aminotransferase, the areas of peaks corresponding to compound 1 and glutamic acid are decreased gradually, whereas areas of peaks corresponding to compound 2 having a retention time of 5.24 min and α-ketoglutamic acid having a retention time of 3.49 min are increased, as shown in the upper panel of FIG. 3. When the area of the peak representing compound 1 is reduced to one-fifth of the initial peak area, white precipitates appear in the reaction solution, while the peak area of compound 2 becomes stable and stays constant until the peak areas of compound 1 and glutamic acid are reduced to about baseline.

[4] = assay type: physicochemical; settings: pH 8.5
Description: Synthesis of L-homophenylalanine: The synthesis is conducted preferably in a reaction mixture (5 ml) containing Tris-HCl buffer (50 mM, pH 8.5), compound 1 (10 mmole, the final concentration of compound 1 is about 2 M), L-Glu (10 mM), pyridoxal 5-phosphate (20 mM) at 37° C. The reaction is initiated by adding the tyrosine aminotransferase (5 units) to the reaction solution and monitored by HPLC.
as §1, with “When the area of the peak representing compound 1 is reduced to one-fifth of the initial peak area, white precipitates appear in the reaction solution, while the peak area of compound 2 becomes stable and stays constant until the peak areas of compound 1 and glutamic acid are reduced to about baseline.” left out

T1 sequence (P04693 whole entry, change not shown): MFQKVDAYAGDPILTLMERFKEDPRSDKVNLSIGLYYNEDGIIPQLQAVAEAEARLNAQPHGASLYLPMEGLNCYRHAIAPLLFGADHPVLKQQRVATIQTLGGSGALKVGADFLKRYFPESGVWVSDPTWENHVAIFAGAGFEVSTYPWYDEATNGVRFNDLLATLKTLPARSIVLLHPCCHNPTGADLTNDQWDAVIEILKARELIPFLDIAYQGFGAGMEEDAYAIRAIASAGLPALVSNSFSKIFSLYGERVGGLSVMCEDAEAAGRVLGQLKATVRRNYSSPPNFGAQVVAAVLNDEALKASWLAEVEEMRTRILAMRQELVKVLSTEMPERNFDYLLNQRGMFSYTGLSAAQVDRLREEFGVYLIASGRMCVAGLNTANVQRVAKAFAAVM
T2 sequence (P04693 whole entry): as the sequence (P04693 whole entry, change not shown) above

solubility in the reaction solution [4] | Compound | inhibition of aminotransferase activity and conversion yield [1] | turnover rate [2] | initial rate [2] | Equilibrium Constant (Keq) [3]
 | O=C(O)C(=O)CCc1ccccc1 [2-oxo-4-phenylbutyric acid] | markedly inhibited |  |  | 
 | C[C@H](N)C(=O)O [L-Ala, alanine] |  | 0.042 mM/min.unit | 0.23 | 
 | N[C@@H](CC(=O)O)C(=O)O [L-Asp, aspartic acid] |  | 0.372 mM/min.unit | 2.04 | 0.187
 | N[C@@H](CCC(=O)O)C(=O)O [L-Glu, glutamic acid] |  | 0.539 mM/min.unit and 0.54 mM/min.unit | 2.96 | 0.345
 | NCC(=O)O [L-Gly, glycine] |  | 0.027 mM/min.unit | 0.15 | 
 | N[C@@H](Cc1c[nH]cn1)C(=O)O [L-His, histidine] |  | 0.089 mM/min.unit | 0.49 | 
 | CC[C@H](C)[C@H](N)C(=O)O [L-Ile, isoleucine] |  | 0.005 mM/min.unit | 0.03 | 
 | CC(C)C[C@H](N)C(=O)O [L-Leu, leucine] |  | 0.106 mM/min.unit | 0.58 | 
 | NCCCC[C@H](N)C(=O)O [L-Lys, lysine] |  | 0.046 mM/min.unit | 0.25 | 
 | CSCC[C@H](N)C(=O)O [L-Met, methionine] |  | 0.268 mM/min.unit | 1.47 | 
 | N[C@@H](Cc1ccccc1)C(=O)O [L-Phe, phenylalanine] |  | 0.605 mM/min.unit and 0.61 mM/min.unit | 3.32 | 0.466
 | N[C@@H](CO)C(=O)O [L-Ser, serine] |  | 0.002 mM/min.unit | 0.01 | 
 | C[C@@H](O)[C@H](N)C(=O)O [L-Thr, threonine] |  | 0.009 mM/min.unit | 0.05 | 
 | N[C@@H](Cc1ccc(O)cc1)C(=O)O [L-Tyr, tyrosine] |  | 0.619 mM/min.unit and 0.62 mM/min.unit | 3.43 | 0.727
 | CC(C)[C@H](N)C(=O)O [L-Val, valine] |  | 0.058 mM/min.unit | 0.32 | 
practically insoluble | N[C@@H](CCc1ccccc1)C(=O)O [compound 2, L-homophenylalanine] |  |  |  | 
